Assay results as given in US20140179521A1, “COMPOSITIONS INCORPORATING HYTd” (Agrinos AS, priority 2012, published 2014).

Key:
Type in all cases: in vivo
small grain cereals = assay: Small grain cereal replicated field experiments, grain yield; conditions: applied topically at growth stage 37
Streptomyces scabies = assay: Potato field experiment, expression of Streptomyces scabies; conditions: potato Maris Piper, field plots, treatment applied at planting
[1] = test system: potato variety Maris Piper; assay: Potato field experiment, tuber yield
Rhizoctonia solani = assay: Potato field experiment, expression of Rhizoctonia solani
Mildew = assay: Small grain cereal replicated field experiments, mildew level / disease control; conditions: small grain cereals
[2] = potato Maris Piper, field plots, treatment applied at planting
[3] = potatoes, in-furrow application, field observations

Work on `CO/C=C(/C(=O)OC)c1ccccc1Oc1cc(Oc2ccccc2C#N)ncn1` [azoxystrobin] yielded a Yield t/ha (small grain cereals) of 10.44 t/ha, a S. scabies (Streptomyces scabies) of 46% and a Yield t/ha [1, 2] of 62.17 t/ha. For the same compound, the “effect on yield (in words)” value [1, 3] was “little direct yield increase”, the R. solani (Rhizoctonia solani; [2]) was 2% and the “control of Rhizoctonia (in words)” value (Rhizoctonia solani; [3]) was “high level disease control”. The “disease control / period of disease suppression (in words)” value (Mildew) was “significant levels of disease control”, the “Mildew level 7 days after treatment” value (Mildew; 7 days after treatment) was 4% and the “Mildew level 21 days after treatment” value (Mildew; 21 days after treatment) was 11%.
